Measurements taken from patent US12396956B2, “Modified release compositions of a gamma-hydroxybutyric acid derivative” (XWPHARMA LTD., priority 2020, dated 2025).

Experiment: Oral bioavailability of γ-hydroxybutyric acid from the prodrug
Conditions: in a patient, oral administration

CC(C)[C@H](N)C(=O)OCCCC(=O)O [compound (1), 4-((L-Valyl)oxy)butanoic acid]
oral bioavailability of γ-hydroxybutyric acid: greater than 60 % F
